Tests used:
[1] = system: mRNA expressed from the genes (A) to (D) in rat liver; assay: Behavior of genes (mRNA expression level, oligo-DNA microarray) in rat liver after 28-day oral administration; format: in vivo; conditions: rat liver, oral once daily 28 days; for Behavior of gene caused by administration of chemical substance, Gene No. 4846 / Behavior of gene caused by administration of chemical substance, Gene No. 4218 / Behavior of gene caused by administration of chemical substance, Gene No. 2026 / Behavior of gene caused by administration of chemical substance, Gene No. 6182 / Behavior of gene caused by administration of chemical substance, Gene No. 5600: (A); for Behavior of gene caused by administration of chemical substance, Gene No. 4846: Unigene Rn.144554, defined direction +; for Behavior of gene caused by administration of chemical substance, Gene No. 4218: Unigene Rn.167075, defined direction +, significant = 1.5 times or more or 1/1.5 or less of control; for Behavior of gene caused by administration of chemical substance, Gene No. 2026: Unigene Rn.167075, defined direction −; for Behavior of gene caused by administration of chemical substance, Gene No. 6182: Unigene Rn.5834, defined direction +; for Behavior of gene caused by administration of chemical substance, Gene No. 5600: Unigene Rn.9836, defined direction +; for Behavior of gene caused by administration of chemical substance, Gene No. 1494 / Behavior of gene caused by administration of chemical substance, Gene No. 2045 / Behavior of gene caused by administration of chemical substance, Gene No. 2203: (B); for Behavior of gene caused by administration of chemical substance, Gene No. 1494: Unigene Rn.1430, defined direction −; for Behavior of gene caused by administration of chemical substance, Gene No. 2045: Unigene Rn.19329, defined direction +; for Behavior of gene caused by administration of chemical substance, Gene No. 2203: Unigene Rn.21240, defined direction +; for Behavior of gene caused by administration of chemical substance, Gene No. 533 / Behavior of gene caused by administration of chemical substance, Gene No. 725 / Behavior of gene caused by administration of chemical substance, Gene No. 1163 / Behavior of gene caused by administration of chemical substance, Gene No. 4973 / Behavior of gene caused by administration of chemical substance, Gene No. 4095 / Behavior of gene caused by administration of chemical substance, Gene No. 1334 / Behavior of gene caused by administration of chemical substance, Gene No. 6620 / Behavior of gene caused by administration of chemical substance, Gene No. 6303 / Behavior of gene caused by administration of chemical substance, Gene No. 5878 / Behavior of gene caused by administration of chemical substance, Gene No. 1131 / Behavior of gene caused by administration of chemical substance, Gene No. 1562 / Behavior of gene caused by administration of chemical substance, Gene No. 1741 / Behavior of gene caused by administration of chemical substance, Gene No. 893 / Behavior of gene caused by administration of chemical substance, Gene No. 6026 / Behavior of gene caused by administration of chemical substance, Gene No. 154 / Behavior of gene caused by administration of chemical substance, Gene No. 1993 / Behavior of gene caused by administration of chemical substance, Gene No. 813 / Behavior of gene caused by administration of chemical substance, Gene No. 2494 / Behavior of gene caused by administration of chemical substance, Gene No. 2546 / Behavior of gene caused by administration of chemical substance, Gene No. 3776 / Behavior of gene caused by administration of chemical substance, Gene No. 3929 / Behavior of gene caused by administration of chemical substance, Gene No. 1119 / Behavior of gene caused by administration of chemical substance, Gene No. 6742 / Behavior of gene caused by administration of chemical substance, Gene No. 5634: (C); for Behavior of gene caused by administration of chemical substance, Gene No. 533: Unigene Rn.106184, defined direction +; for Behavior of gene caused by administration of chemical substance, Gene No. 725: Unigene Rn.108075, defined direction −; for Behavior of gene caused by administration of chemical substance, Gene No. 1163: Unigene Rn.11766, defined direction +; for Behavior of gene caused by administration of chemical substance, Gene No. 4973: Unigene Rn.118529, defined direction −; for Behavior of gene caused by administration of chemical substance, Gene No. 4095: Unigene Rn.119024, defined direction −; for Behavior of gene caused by administration of chemical substance, Gene No. 1334 / Behavior of gene caused by administration of chemical substance, Gene No. 6620: Unigene Rn.120914, defined direction +; for Behavior of gene caused by administration of chemical substance, Gene No. 6303: Unigene Rn.123063, defined direction −; for Behavior of gene caused by administration of chemical substance, Gene No. 5878: Unigene Rn.143213, defined direction −; for Behavior of gene caused by administration of chemical substance, Gene No. 1131: Unigene Rn.144946, defined direction −; for Behavior of gene caused by administration of chemical substance, Gene No. 1562: Unigene Rn.14744, defined direction −; for Behavior of gene caused by administration of chemical substance, Gene No. 1741: Unigene Rn.1647, defined direction −; for Behavior of gene caused by administration of chemical substance, Gene No. 893: Unigene Rn.164817, defined direction +; for Behavior of gene caused by administration of chemical substance, Gene No. 6026: Unigene Rn.167685, defined direction −; for Behavior of gene caused by administration of chemical substance, Gene No. 154: Unigene Rn.185941, defined direction −; for Behavior of gene caused by administration of chemical substance, Gene No. 1993: Unigene Rn.18728, defined direction −; for Behavior of gene caused by administration of chemical substance, Gene No. 813: Unigene Rn.201760, defined direction +; for Behavior of gene caused by administration of chemical substance, Gene No. 2494: Unigene Rn.23969, defined direction +; for Behavior of gene caused by administration of chemical substance, Gene No. 2546: Unigene Rn.24561, defined direction −; for Behavior of gene caused by administration of chemical substance, Gene No. 3776: Unigene Rn.43232, defined direction −; for Behavior of gene caused by administration of chemical substance, Gene No. 3929: Unigene Rn.4620, defined direction +; for Behavior of gene caused by administration of chemical substance, Gene No. 1119: Unigene Rn.9757, defined direction +; for Behavior of gene caused by administration of chemical substance, Gene No. 6742: Unigene Rn.9779, defined direction +; for Behavior of gene caused by administration of chemical substance, Gene No. 5634: Unigene Rn.9862, defined direction −; for Behavior of gene caused by administration of chemical substance, Gene No. 5726: (D), Unigene Rn.9939, defined direction −
Outline: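 Liver mRNA levels were compared with matched vehicle groups, with a shift of at least 1.5-fold up or down deemed significant unless its direction disagreed with other carcinogens. Test substances were dosed orally by gavage daily for 28 days to 5-week-old male F344 rats, four per group.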

liver = conditions: in vivo; cited from earlier work
rodent = conditions: in vivo; cited from earlier work

| Structure (SMILES) | Behavior of gene caused by administration of chemical substance, Gene No. 4846 [1] | Behavior of gene caused by administration of chemical substance, Gene No. 4218 [1] | Behavior of gene caused by administration of chemical substance, Gene No. 2026 [1] | Behavior of gene caused by administration of chemical substance, Gene No. 6182 [1] | Behavior of gene caused by administration of chemical substance, Gene No. 5600 [1] | Behavior of gene caused by administration of chemical substance, Gene No. 1494 [1] | Behavior of gene caused by administration of chemical substance, Gene No. 2045 [1] | Behavior of gene caused by administration of chemical substance, Gene No. 2203 [1] | Behavior of gene caused by administration of chemical substance, Gene No. 533 [1] | Behavior of gene caused by administration of chemical substance, Gene No. 725 [1] | Behavior of gene caused by administration of chemical substance, Gene No. 1163 [1] | Behavior of gene caused by administration of chemical substance, Gene No. 4973 [1] | Behavior of gene caused by administration of chemical substance, Gene No. 4095 [1] | Behavior of gene caused by administration of chemical substance, Gene No. 1334 [1] | Behavior of gene caused by administration of chemical substance, Gene No. 6620 [1] | Behavior of gene caused by administration of chemical substance, Gene No. 6303 [1] | Behavior of gene caused by administration of chemical substance, Gene No. 5878 [1] | Behavior of gene caused by administration of chemical substance, Gene No. 1131 [1] | Behavior of gene caused by administration of chemical substance, Gene No. 1562 [1] | Behavior of gene caused by administration of chemical substance, Gene No. 1741 [1] | further results |
| --- | --- | --- | --- | --- | --- | --- | --- | --- | --- | --- | --- | --- | --- | --- | --- | --- | --- | --- | --- | --- | --- |
| c1ccoc1 [TS028, Furan] | + | + | + | + | + | + | − | − | + | − | − | + | + | − | − | + | + | − | + | + | Behavior of gene caused by administration of chemical substance, Gene No. 893 [1]: −; Behavior of gene caused by administration of chemical substance, Gene No. 6026 [1]: −; Behavior of gene caused by administration of chemical substance, Gene No. 154 [1]: +; Behavior of gene caused by administration of chemical substance, Gene No. 1993 [1]: +; Behavior of gene caused by administration of chemical substance, Gene No. 813 [1]: +; Behavior of gene caused by administration of chemical substance, Gene No. 2494 [1]: −; Behavior of gene caused by administration of chemical substance, Gene No. 2546 [1]: −; Behavior of gene caused by administration of chemical substance, Gene No. 3776 [1]: +; Behavior of gene caused by administration of chemical substance, Gene No. 3929 [1]: +; Behavior of gene caused by administration of chemical substance, Gene No. 1119 [1]: +; Behavior of gene caused by administration of chemical substance, Gene No. 6742 [1]: +; Behavior of gene caused by administration of chemical substance, Gene No. 5634 [1]: +; Behavior of gene caused by administration of chemical substance, Gene No. 5726 [1]: −; Liver carcinogenicity (liver): Cr+; Carcinogenicity (rodent): C+ |
| O=NN1CCOCC1 [TS014, N-Nitrosomorpholine] | + | + | + | + | + | + | − | − | − | − | + | − | − | − | − | − | − | − | − | − | Behavior of gene caused by administration of chemical substance, Gene No. 893 [1]: −; Behavior of gene caused by administration of chemical substance, Gene No. 6026 [1]: −; Behavior of gene caused by administration of chemical substance, Gene No. 154 [1]: −; Behavior of gene caused by administration of chemical substance, Gene No. 1993 [1]: +; Behavior of gene caused by administration of chemical substance, Gene No. 813 [1]: +; Behavior of gene caused by administration of chemical substance, Gene No. 2494 [1]: −; Behavior of gene caused by administration of chemical substance, Gene No. 2546 [1]: −; Behavior of gene caused by administration of chemical substance, Gene No. 3776 [1]: −; Behavior of gene caused by administration of chemical substance, Gene No. 3929 [1]: −; Behavior of gene caused by administration of chemical substance, Gene No. 1119 [1]: −; Behavior of gene caused by administration of chemical substance, Gene No. 6742 [1]: −; Behavior of gene caused by administration of chemical substance, Gene No. 5634 [1]: −; Behavior of gene caused by administration of chemical substance, Gene No. 5726 [1]: −; Liver carcinogenicity (liver): Cr+; Carcinogenicity (rodent): C+ |
